Laboratory results taken from US11166942B2 (PRAXIS BIOTECH LLC, priority 2018, dated 2021).
Read-outs that look alike come from different tables or passages of the source.

Experiments:
[1] = tested on: CT26 tumor-bearing Balb/c mice, gastrocnemius; assay: Cachexia-induced muscle atrophy; format: in vivo, mouse; conditions: 10 mg/kg daily oral gavage for 12 days
Procedure: Wild type six-weeks-old male Balb/c mice obtained from the vivarium Fundación Ciencia & Vida Chile (Santiago, Chile) were used. Mice were housed in independent plastic cages in a room maintained at 25° C. with a 12-h:12-h light:dark cycle.
1×10^6 CT26 colon carcinoma cell line (ATCC #CRL-2638, ATCC Manassas, Va.) were injected subcutaneously in the right lower flank of each animal for induction of cachexia-induced muscle atrophy as described (Nat Commun. 2012 Jun. 12; 3:896). Non-injected animals were used as controls. At day 7 post tumor-cell injection, animals were randomized into two groups and treated with 10 mg/kg of test compound formulated in 50% Polyethylene glycol (PEG-400) in distilled water, or with vehicle (50% PEG-400 in distilled water) by daily oral gavage for 12 days.
After 12 treatments, animals were sacrificed and gastrocnemius were removed from both hindlimbs. Muscles derived from non-tumor-bearing mice were used as control.
Upon collection, muscles were immediately frozen in liquid nitrogen and then stored at −80° C. The frozen muscles were then homogenized with a T 10 basic ULTRA-TURRAX (IKa) in ice-cold buffer lysis (Cell Signaling 9803) and protease and phosphatase inhibitors (Roche). Lysates were sonicated for 3 min and centrifuged at 13,000 rpm for 20 minutes at 4° C. Protein concentration in supernatants was determined using BCA Protein Assay Kit (Pierce). Equal amount of protein was loaded on SDS-PAGE gels. […]
ATF4 (Abcam), Atrogin-1 (ECM Biosciences), MuRF-1 (Santa Cruz Biotechnology) and β-actin (Sigma-Aldrich) antibodies were used as primary antibodies. […] Quantification of protein bands was done by densitometry using ImageJ software.
Expression of ATF4 and the muscle atrophy markers, Atrogin-1 and MuRF-1, of gastrocnemius derived from control and CT26 tumor-bearing mice treated with vehicle or compound 58 are shown in FIG. 10A. […] The levels were normalized to β-actin expression and percentage was calculated as the percent relative to the expression of non-tumor-bearing mice (Control) which corresponds to 100%. […]

[2] = tested on: Chinese hamster ovary (CHO) cells; assay: Protein translation assay (puromycin labelling, CHO cells); format: cell-based; conditions: Cricetulus griseus, CHO, media alone = 100%
Procedure, shortened: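 CHO cells given compound 2 h at 1 μM (unstressed), or 1 h at 100 nM or 1 μM then co-treated with 300 nM Tg (stressed); 10 μg/ml puromycin pulse 30 min, anti-puromycin western blot with β-actin, densitometry. Normalized to media alone (100%) and, for stressed cells, Tg alone (0%).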

O=C(NN1CCN(C[C@@H](O)COc2ccc(Cl)c(F)c2)CC1)c1ccc2cc(Cl)ccc2n1 [Compound 58, (R)-6-chloro-N-(4-(3-(4-chloro-3-fluorophenoxy)-2-hydroxypropyl)piperazin-1-yl)quinoline-2-carboxamide]
ATF4 expression in gastrocnemius ([1]; vs vehicle (FIG. 10B)): reduction | Atrogin-1 expression in gastrocnemius ([1]; vs vehicle (FIG. 10C)): reduction | MuRF-1 expression in gastrocnemius ([1]; vs vehicle (FIG. 10D)): reduction | activity at 1 µM ([2]; 2 h, unstressed CHO cells, 1 μM, 2 hours, read-out: % Protein synthesis in unstressed cells (1 μM test compound)): 164% | activity at 1 µM ([2]; CHO cells stressed with 300 nM Tg, 1 μM compound, Tg alone = 0%, read-out: % Recovery of protein expression (1 μM test compound)): 118%
